According to patent US20130287807A1, “COMPOUNDS FOR TREATING SYMPTOMS ASSOCIATED WITH PARKINSON'S DISEASE” (priority 2008, published 2013):
“Also recorded” adds a separate entry of the source. Square brackets hold non-standard residues; d marks the D form. Ends that are not written are not given here. Tle = CC(C)(C)[C@H](N)C(=O)O

How the values were obtained:
[1] = tested on: monoclonal antibody MV-001; assay: In vitro binding assay (ELISA), BSA-coupled peptides, parental antibody MV-001; set-up: species or system C57/B16 mice; conditions: Table 1C; peptide-BSA on plate, compared to original epitope
Procedure: Peptides derived from Phage Display as well as variants thereof were coupled to BSA and bound to ELISA plates (1 μM; as indicated in the respective figures) and subsequently incubated with the monoclonal antibody that was used for the screening procedure to analyse binding capacity of identified peptides.
Legend to Table 1C: the binding capacity is coded by the following binding code: 1:X describes the dilution factor of the parental AB

[2] = tested on: monoclonal antibody (DAEFRH-peptide-specific); assay: Inhibition assay (ELISA): mimotope peptides compete with plate-bound original epitope DAEFRH for recognition by the monoclonal antibody; format: binding, Mice; set-up: key to inhibition (s/m/—): s: strong inhibition; m: moderate inhibition; —: -: no inhibition; conditions: for inhibition of binding of the monoclonal antibody to the original epitope: text to FIGS. 2-9; for Inhibitory capacity of mimotopes: summary Tables 1 and 2 (Examples 2, 3); for inhibition (s/m/—): peptide lists of Example 4
Text: Mice are vaccinated with the 6mer peptide DAEFRH (natural N-terminal Aβ42 sequence) linked to the protein bovine serum albumin BSA (to make use of the hapten-carrier-effect), emulsified in CFA (first injection) and IFA (booster injections). DAEFRH-peptide-specific, antibody-producing hybridomas are detected by ELISA (DAEFRH-peptide-coated ELISA plates).
FIGS. 2 and 3 describe the results of inhibition assays performed with mimotope peptides included in and obtained from the 5 libraries (as described in WO 2004/062556). The mimotope peptides compete with the original epitope for recognition by the monoclonal antibody. Original epitope and mimotope peptides contain an additional C at the C-terminus for coupling to a protein carrier (if desired).
(§1) After blocking with PBS/BSA 1% (200 μl/well, 12 h, 4° C.), the plates are washed 3× times with PBS/Tween. Then, biotinylated monoclonal antibody (1:2000, 50 μl/well) and peptides (50 μl/well) at 50, 5, 0.5, 0.05, 0.005, and 0.0005 μg/ml are added for 20 min. at 37° C. The plates are washed 3× times with PBS/Tween and are incubated with horseradish peroxidase (HRP)-labeled streptavidin (100 μl/well, 30 min, RT). The plates are washed 5× times with PBS/Tween and are incubated with ABTS+H2O2(0.1% w/v, 10 to 45 min) and the reaction is stopped with citric acid followed by photometric evaluation (wavelength 405 nm).
as §1, with “different concentrations” for “50, 5, 0.5, 0.05, 0.005, and 0.0005 μg/ml”, “ABTS+H2O2 (0.1%” for “ABTS+H2O2(0.1%”
as §1, with “different concentrations” for “50, 5, 0.5, 0.05, 0.005, and 0.0005 μg/ml”

[3] = competition ELISA, plate-bound DAEFRH-C-BSA

Binding Capacity [1] | inhibition of binding of the monoclonal antibody to the original epitope [2, 3] | Molecule | further results
2 (medium binding :4000-20000) |  | APMYFPHC [p4717] | 
3 (strong binding :>20000) |  | SAGSFRHC [p4710] | 
3 (strong binding :>20000) |  | SEFSHSSC [p4712] | 
2 (medium binding :4000-20000) |  | TGLMFKHC [p4736] | 
 | hardly inhibitory | KKELRI (KKELRIC) [Peptide 1234] | Inhibitory capacity of mimotopes [2]: none
 | moderately inhibit | DNEFRSP [Peptide 4012] | inhibition (s/m/—) [2]: s
3 (strong binding :>20000) |  | NSSELRHC [p4752] | 
3 (strong binding :>20000) |  | LHIPFRHC [p4726] | 
2 (medium binding :4000-20000) |  | YSMRHDAC [p4705] | 
3 (strong binding :>20000) |  | SQSYFKHC [p4755] | 
2 (medium binding :4000-20000) |  | MLPFRHGC [p4731] | 
 | block epitope recognition | CC[C@H](C)[C@H](NC(=O)[C@H](CCCNC(=N)N)NC(=O)[C@H](CC(C)C)NC(=O)[C@H](CCC(=O)O)NC(=O)[C@H](CCCNC(=N)N)NC(=O)[C@@H](N)CC(=O)O)C(=O)N[C@@H](CS)C(=O)O [Peptide 1235, DRELRI] | Inhibitory capacity of mimotopes [2]: strong
2 (medium binding :4000-20000) |  | AEFSHWHC [p4737] | 
3 (strong binding :>20000) |  | SNSEFRRC [p4743] | 
2 (medium binding :4000-20000) |  | AYFPHTSC [p4751] | 
 | not inhibitory | DIGWRG (DIGWRGC) [Peptide 3011] | Inhibitory capacity of mimotopes [2]: none
3 (strong binding :>20000) |  | SNFRHSVC [p4749] | 
 | block epitope recognition | CC[C@H](C)[C@H](NC(=O)[C@H](CCCCN)NC(=O)[C@H](CC(C)C)NC(=O)[C@H](CCC(=O)O)NC(=O)[C@H](CCCNC(=N)N)NC(=O)[C@@H](N)CC(=O)O)C(=O)N[C@@H](CS)C(=O)O [Peptide 1237, DRELKI] | Inhibitory capacity of mimotopes [2]: weak
3 (strong binding :>20000) |  | THMEFRRC [p4745] | 
3 (strong binding :>20000) |  | NELRHSTC [p4701] | 

Binding Capacity [1] | inhibition of binding of the monoclonal antibody to the original epitope [2, 3] | Molecule | further results
2 (medium binding :4000-20000) |  | NELFKHFC [p4727] | 
1 (weak binding :<4000) |  | QPNLFYHC [p4713] | 
2 (medium binding :4000-20000) |  | ATFRHSTC [p4735] | 
2 (medium binding :4000-20000) |  | VELRHSRC [p4704] | 
1 (weak binding :<4000) |  | TSTEMWHC [p4754] | 
 | block epitope recognition | C[C@@H](O)[C@H](NC(=O)[C@H](CCCNC(=N)N)NC(=O)[C@H](Cc1ccccc1)NC(=O)[C@H](CCC(=O)O)NC(=O)[C@H](Cc1c[nH]c2ccccc12)NC(=O)[C@@H](N)CO)C(=O)N[C@@H](CS)C(=O)O [Peptide 4002, SWEFRT] | IC50 (inhibition of monoclonal antibody recognition of DAEFRH) ([2]; competition ELISA, plate-bound DAEFRH-C-BSA, biotinylated mAb 1:2000): less than 0.4 μg/ml; Inhibitory capacity of mimotopes [2]: strong
 | block epitope recognition | CC[C@H](C)[C@H](NC(=O)[C@H](CCCNC(=N)N)NC(=O)[C@H](CC(C)C)NC(=O)[C@H](CCC(=O)O)NC(=O)[C@H](Cc1c[nH]c2ccccc12)NC(=O)[C@@H](N)CC(=O)O)C(=O)N[C@@H](CS)C(=O)O [Peptide 3002, DWELRI] | Inhibitory capacity of mimotopes [2]: intermediate
3 (strong binding :>20000) |  | QLFKHSPC [p4747] | 
1 (weak binding :<4000) |  | HEPLFSHC [p4719] | 
1 (weak binding :<4000) |  | QELKRYYC [p4724] | 
 | not inhibitory | VPTSALA [Peptide 4037] | inhibition (s/m/—) [2]: —
1 (weak binding :<4000) |  | TPLMFWHC [p4733] | 
2 (medium binding :4000-20000) |  | IGFRHDSC [p4742] | 
3 (strong binding :>20000) |  | GEMRHQPC [p4702] | 
 | strongly block epitope recognition | SWEFRNP [Peptide 4017] | inhibition (s/m/—) [2]: s
3 (strong binding :>20000) |  | EFLRHTLC [p4722] | 
3 (strong binding :>20000) |  | ATPLFRHC [p4723] | 
 | not able to inhibit | YREFFI (YREFFIC) [Peptide 3003] | Inhibitory capacity of mimotopes [2]: none
2 (medium binding :4000-20000) |  | TYFSHSLC [p4718] | 
 | moderately inhibit | GAEFRFT [Peptide 4014] | inhibition (s/m/—) [2]: m

Binding Capacity [1] | inhibition of binding of the monoclonal antibody to the original epitope [2, 3] | Molecule | further results
2 (medium binding :4000-20000) |  | SAMRHSLC [p4732] | 
 | not inhibitory | DISFRG (DISFRGC) [Peptide 3010] | Inhibitory capacity of mimotopes [2]: none
 | block epitope recognition | CC[C@H](C)[C@H](NC(=O)[C@H](CCCNC(=N)N)NC(=O)[C@H](CC(C)C)NC(=O)[C@H](CCC(=O)O)NC(=O)[C@H](CCCCN)NC(=O)[C@@H](N)CC(=O)O)C(=O)N[C@@H](CS)C(=O)O [Peptide 3001, DKELRI] | Inhibitory capacity of mimotopes [2]: strong
2 (medium binding :4000-20000) |  | DTYFPRSC [p4703] | 
 | not inhibitory | DKE(tBuGly)R (DKE[Tle]R) [Peptide 4061] | inhibition (s/m/—) [2]: —
2 (medium binding :4000-20000) |  | AEFMHSVC [p4739] | 
2 (medium binding :4000-20000) |  | AANYFPRC [p4706] | 
3 (strong binding :>20000) |  | APIQFRHC [p4750] | 
 | not inhibitory | SWFRNP [Peptide 4019] | inhibition (s/m/—) [2]: —
 | not inhibitory | ATYAYWN [Peptide 4038] | inhibition (s/m/—) [2]: —
2 (medium binding :4000-20000) |  | LQFKHSTC [p4734] | 
2 (medium binding :4000-20000) |  | ATFRHSPC [p4716] | 
 | strongly block epitope recognition | SAEFRTQ [Peptide 4015] | inhibition (s/m/—) [2]: s
1 (weak binding :<4000) |  | EDWFFWHC [p4709] | 
 | block epitope recognition | CC[C@H](C)[C@H](NC(=O)[C@H](CCCCN)NC(=O)[C@H](CC(C)C)NC(=O)[C@H](CCC(=O)O)NC(=O)[C@H](CCCCN)NC(=O)[C@@H](N)CC(=O)O)C(=O)N[C@@H](CS)C(=O)O [Peptide 1236, DKELKI] | Inhibitory capacity of mimotopes [2]: weak
2 (medium binding :4000-20000) |  | SSSFFPRC [p4708] | 
2 (medium binding :4000-20000) |  | QVMRHHAC [p4711] | 
2 (medium binding :4000-20000) |  | SQYFPRPC [p4729] | 
2 (medium binding :4000-20000) |  | SLMRHSSC [p4721] | 
3 (strong binding :>20000) |  | SELRHSTC [p4744] | 

Molecule | Binding Capacity [1] | inhibition of binding of the monoclonal antibody to the original epitope [2, 3] | further results
C[C@H](NC(=O)[C@H](CC(=O)O)NC(=O)[C@H](CCCNC(=N)N)NC(=O)[C@H](Cc1ccccc1)NC(=O)[C@H](CCC(=O)O)NC(=O)[C@H](Cc1c[nH]c2ccccc12)NC(=O)[C@@H](N)CC(=O)O)C(=O)N[C@@H](CS)C(=O)O [Peptide 1241, DWEFRDA] |  | block epitope recognition | Inhibitory capacity of mimotopes [2]: strong
YREFRI (YREFRIC) [Peptide 3004] |  | block epitope recognition; also recorded: only inhibitory at a high concentration (50 μg/ml) | Inhibitory capacity of mimotopes [2]: weak
